According to patent US11980620B2, “Compounds and methods for treatment of Diamond Blackfan anemia” (THE CHILDREN'S MEDICAL CENTER CORPORATION, priority 2017, dated 2024):

Key:
DBA CD34-5F cells = experiment: Erythroid differentiation (CD71+GlyA+) of CD34-5F cells from DBA iPSCs; type: cell-based, human
Experimental: (FIG. 8A) The distribution of 1440 compounds by Z-score in a proliferation-based screen of the Sigma LOPAC chemical library. DBA CD34-5F cells were plated in erythroid-promoting conditions in 384-well format. Erythroid proliferation was measured in the presence of 5 μM of each compound, and converted into Z-scores. The screen was carried out with 3 RPS19 DBA and 2 normal iPSC lines. (FIG. 88) Dose-dependent effect of SMER28 (in μM) on erythroid differentiation, shown as the absolute number of erythroid cells in each drug-treated condition normalized to vehicle (DMSO) control. Erythroid cells were analyzed on day 9 of differentiation using markers CD71 and GlyA. Dose curve was performed with DBA (n=5) and control (n=3) iPSCs. Non-linear regression curve was plotted to calculate EC50 values. (FIGS. 8C and 8D) Dose-dependent effect of SMER28 (in μM) on erythroid differentiation of CB CD34^+ RPS19^+ cells. (FIG. 8C) Absolute number of erythroid cells (analyzed on day 9) in each drug-treated condition normalized to vehicle (DMSO) control (4 independent experiments). Non-linear regression curve was plotted to calculate EC50 values. (FIG. 8D) Representative flow plots of control (shLUC) and RPS19th cells treated with DMSO or increasing doses of SMER28.
(FIG. 12A) Erythroid differentiation of control and DBA CD34-5F cells treated with DMSO vehicle or SMER28 (10 μM) during the initial CD34^+ progenitor phase (day 0-4 of differentiation), or stage I of erythroid culture (day 4-9 of differentiation). Percent of erythroid cells after stage I of differentiation is indicated in top left for each condition, and quantitated in (FIG. 12B). Data are shown as mean f s.e.m. of 4 independent experiments, with 2 control and 4 DBA iPSCs. (FIG. 12C) Same as (FIG. 12A) for CB CD34+ cells transduced with shRPS19 hairpins. GFP^+ RPS19^sh and GFP^− control cells were quantitated separately. […] (FIG. 12D) RBC pellets at the end of stage III initiated with equal numbers of CD34-5F or CB progenitors. SMER28 was added at […]. (FIG. 12E) May-Grunwald-Giemsa stain of erythroid cells from CB CD34^+ at end of stage III. Arrows indicate enucleated RBCs, which are quantitated by flow cytometry. (FIG. 12F) Quantitation of the enucleation efficiency (left) of GLYA^+ cells. Data in FIGS. 12E-12F represents 3 independent experiments. For all panels, *p<0.05, **p<0.01.
Erythroid differentiation. Differentiation was performed essentially as described (Lee et al., 2015). CD34 expansion phase (4 days): To initiate differentiation CD34-5F cells were cultured in progenitor media without Dox. Stage I (5 days): Media were changed to: IMDM+1% BSA (Gibco), 20% FBS (Stem Cell Technologies), 1 mM L-glutamine, penicillin/streptomycin, 500 μg/ml h-transferrin (Sigma), 10 μg/ml human insulin (CellSciences), 1 μM β-estradiol, 1 μM Dex, 6U Epo (CellSciences), 100 μg/ml SCF, and 5 μg/ml IL-3. Cells were seeded at a density of <1×10^5 cells/ml in 24-well plates. Stage 11 (4 days). Media were changed to: IMDM+1% BSA, 20% FBS, 1 mM L-glutamine, penicillin/streptomycin, 500 μg/ml h-transferrin, 10 μg/ml human insulin, 6U Epo, and 50 μg/ml SCF. Cells were seeded at a density of <2×10^5 cells/ml in 24-well plates. Stage III (10 days) Media were changed to: IMDM+1% BSA, 20% FBS, 1 mM L-glutamine, penicillin/streptomycin, 500 μg/ml h-transferrin, 10 μg/ml human insulin, and 2U Epo. Cells were seeded at a density of <5×10^5 cells/ml in 24-well plates.
Drug treatments. […]

A53T alpha-synuclein = conditions: PC-12 cells; independent of rapamycin treatment; cited from earlier work

SMILES: C=CCNc1ncnc2ccc(Br)cc12 [SMER28, 6-Bromo-N-2-propenyl-4-quinazolinam]
- output of GlyA+ cells (DBA CD34-5F cells; 10 μM, treated only during initial expansion phase (day 0-4), DBA progenitors): increased output
- CD71+GlyA- pre-erythroblasts (DBA CD34-5F cells; 10 μM, treatment during stage I (day 4-9)): expanded
- number of GlyA+ cells (DBA CD34-5F cells; 10 μM, treatment of erythroblasts during stage I (day 4-9)): did not significantly increase
- effect on number of erythroid cells normalized to vehicle (DBA CD34-5F cells; DBA iPSCs): 9.8 fold
- EC50 (DBA CD34-5F cells; Homo sapiens, iPSC, 216 h, RPS19+/- and RPL5 DBA iPSCs, day 9, normalized to DMSO, 95% confidence interval 0.63 to 2.37 μM, read-out: EC50, absolute number of CD71+GlyA+ erythroid cells): 1.5 µM
- A53T alpha-synuclein clearance (A53T alpha-synuclein): Enhances
